Reference: PubChem BioAssay AID1259408 (Genetic Toxicology Data Bank (GENE-TOX), 2018)
Activity calls are given as the source filed them. No rule for the calls is given here.

System: GENE-TOX genotoxicity assays, various organisms and cells
Assay: GENE-TOX mutagenicity studies
[1] = Species/Cell Type: Human diploid fibroblasts, Assay Type: Unscheduled DNA synthesis (UDS) in vitro, DNA effects, Assay Code: UDH-, Evaluation Type: Evaluation A (Pre-1980)
[2] = Species/Cell Type: Human lymphocytes, Assay Type: Sister-chromatid exchange (SCE) in vitro, Assay Code: SCL+, Evaluation Type: Evaluation B (Post-1980)
[3] = Species/Cell Type: Human, Assay Type: Sister-chromatid exchange (SCE) in vitro, Assay Code: SC1+, Evaluation Type: Evaluation B (Post-1980)
[4] = Species/Cell Type: Salmonella typhimurium (one or more of the five standard strains: TA98, TA100, TA1535, TA1537, and TA1538), Assay Type: Histidine reverse gene mutation, Ames assay, Assay Code: SAL-, Evaluation Type: Evaluation A (Pre-1980)
[5] = Species/Cell Type: Drosophila melanogaster, Assay Type: Sex-linked recessive lethal gene mutation, Assay Code: SRL+, Evaluation Type: Evaluation A (Pre-1980)
[6] = Species/Cell Type: Escherichia coli polA (W3119 vs P3478), Assay Type: Rec-assay, DNA effects (bacterial DNA repair), Assay Code: RE1+, Evaluation Type: Evaluation A (Pre-1980)
[7] = Species/Cell Type: Mammalian polychromatic erythrocytes, Assay Type: Micronucleus test, chromosome aberrations, Assay Code: MNTT, Evaluation Type: Evaluation B (Post-1980)
[8] = Species/Cell Type: Saccharomyces cerevisiae, Assay Type: Mitotic recombination or gene conversion, Assay Code: YEC+, Evaluation Type: Evaluation A (Pre-1980)
[9] = Species/Cell Type: Salmonella typhimurium (one or more of the five standard strains: TA98, TA100, TA1535, TA1537, and TA1538), Assay Type: Histidine reverse gene mutation, Ames assay, Assay Code: SALT, Evaluation Type: Evaluation A (Pre-1980)

In the case of CCSCC[C@H](N)C(=O)O, the mutagenic call (Species/Cell Type: Escherichia coli polA (W3110 vs P3478), Assay Type: Rec-assay, DNA effects (bacterial DNA repair), Assay Code: RE2T, Evaluation Type: Evaluation A (Pre-1980)) is reported as “no conclusion”, the mutagenic call (Species/Cell Type: Escherichia coli polA (W3119 vs P3478), Assay Type: Rec-assay, DNA effects (bacterial DNA repair), Assay Code: RE1T, Evaluation Type: Evaluation A (Pre-1980)) is reported as “no conclusion” and the mutagenic call [1] is reported as “inactive; negative”. The mutagenic call [2] was “active; positive”, the mutagenic call [3] was “active; positive” and the mutagenic call (Species/Cell Type: Mammalian polychromatic erythrocytes, Assay Type: Micronucleus test, chromosome aberrations, Assay Code: MNT+, Evaluation Type: Evaluation A (Pre-1980)) was “active; positive”. For the same compound, the mutagenic call (Species/Cell Type: Mouse, Sex: Male, Assay Type: Sperm morphology, Assay Code: SPI+, Evaluation Type: Evaluation A (Pre-1980)) was “active; positive”, the mutagenic call (Species/Cell Type: Saccharomyces cerevisiae, Assay Type: Mitotic recombination or gene conversion, Assay Code: YEH-, Evaluation Type: Evaluation A (Pre-1980)) was “inactive; negative” and the mutagenic call [4] was “inactive; negative”. For the same compound, the mutagenic call (Species/Cell Type: Salmonella typhimurium, Assay Type: Forward and reverse gene mutation, host-mediated assay, Assay Code: HMA-, Evaluation Type: Evaluation A (Pre-1980)) was “inactive; negative” and the mutagenic call (Species/Cell Type: Syrian hamster embryo (SHE) cells, Assay Type: Cell transformation, clonal assay, Assay Code: CTC+, Evaluation Type: Evaluation A (Pre-1980)) was “active; positive”.
BrCCBr was tested, and the mutagenic call (Species/Cell Type: Aspergillus nidulans, Assay Type: Forward gene mutation, Assay Code: ASF+, Evaluation Type: Evaluation A (Pre-1980)) was “active; positive”, the mutagenic call (Species/Cell Type: Chinese hamster ovary (CHO) cells, Assay Type: Forward gene mutation at the HPRT locus, Assay Code: CHO+, Evaluation Type: Evaluation B (Post-1980)) was “active; positive” and the mutagenic call [5] was “active; positive”. For the same compound, the mutagenic call [6] was “active; positive”, the mutagenic call (Species/Cell Type: Fischer rat embryo (RLV/1706) cells, Assay Type: Cell transformation, viral enhanced, Assay Code: CTR+, Evaluation Type: Evaluation A (Pre-1980)) was “active; positive” and the mutagenic call [2] was “active; positive”. The mutagenic call [3] was “active; positive”, the mutagenic call (Species/Cell Type: Human, Sex: Male, Assay Type: Sperm morphology, Assay Code: SPH+, Evaluation Type: Evaluation A (Pre-1980)) was “active; positive” and the mutagenic call [7] was “no conclusion”. For the same compound, the mutagenic call (Species/Cell Type: Mouse germ cells, Sex: Male, Assay Type: Unscheduled DNA synthesis (UDS) in vivo, DNA effects, Assay Code: UDT-, Evaluation Type: Evaluation A (Pre-1980)) was “inactive; negative”, the mutagenic call (Species/Cell Type: Mouse lymphoma (L5178Y) cells, Assay Type: Forward gene mutation at the thymidine kinase (TK) locus, chromosome aberrations, Assay Code: L51+, Evaluation Type: Evaluation A (Pre-1980)) was “active; positive” and the mutagenic call (Species/Cell Type: Neurospora crassa, Assay Type: Forward gene mutation, Assay Code: NEF+, Evaluation Type: Evaluation A (Pre-1980)) was “active; positive”. The call (Species/Cell Type: Nonhuman, Assay Type: In vivo carcinogenicity studies, Assay Code: CCG+, Evaluation Type: Evaluation A (Pre-1980)) was “active; positive”, the mutagenic call (Species/Cell Type: Nonhuman, Assay Type: Sister-chromatid exchange (SCE) in vitro, Assay Code: SC2+D, Dose Response: With dose response, Evaluation Type: Evaluation B (Post-1980)) was “active; positive” and the mutagenic call (Species/Cell Type: Nonhuman, Assay Type: Sister-chromatid exchange (SCE) in vivo, Assay Code: SC3+, Evaluation Type: Evaluation B (Post-1980)) was “active; positive”. For the same compound, the mutagenic call (Species/Cell Type: Plant, Assay Type: Micronucleus test, chromosome aberrations, Assay Code: MNP+, Evaluation Type: Evaluation A (Pre-1980)) was “active; positive”, the mutagenic call [8] was “active; positive” and the mutagenic call (Species/Cell Type: Salmonella typhimurium, Assay Type: Forward and reverse gene mutation, body fluid assay, Assay Code: BFUT, Evaluation Type: Evaluation A (Pre-1980)) was “no conclusion”. The mutagenic call (Species/Cell Type: Salmonella typhimurium, Assay Type: Forward and reverse gene mutation, host-mediated assay, Assay Code: HMA+, Evaluation Type: Evaluation A (Pre-1980)) was “active; positive”, the mutagenic call (Species/Cell Type: Syrian hamster embryo (SA7/SHE) cells, Assay Type: Cell transformation, viral enhanced, Assay Code: CT7+, Evaluation Type: Evaluation A (Pre-1980)) was “active; positive” and the mutagenic call (Species/Cell Type: Tradescantia species, Assay Type: Chromosome aberrations, Assay Code: TRC+D, Dose Response: With dose response, Evaluation Type: Evaluation A (Pre-1980)) was “active; positive”. For the same compound, the mutagenic call (Species/Cell Type: Tradescantia species, Assay Type: Gene mutation, Assay Code: TRM+D, Dose Response: With dose response, Evaluation Type: Evaluation A (Pre-1980)) was “active; positive”.
In the case of CCN(CC)CCCC(C)Nc1ccnc2cc(Cl)ccc12 (stereo unspecified), the mutagenic call [6] is reported as “active; positive” and the mutagenic call (Species/Cell Type: Mammalian cell culture, nonhuman, Assay Type: Micronucleus test in vitro, chromosome aberrations, Assay Code: MN&+, Evaluation Type: Evaluation A (Pre-1980)) is reported as “active; positive”.
For COc1cc(NC(=O)c2ccccc2)c(OC)cc1[N+]#N, the mutagenic call (Species/Cell Type: Bacillus subtilis (H17 vs M45), Assay Type: Rec-assay, spot test, DNA effects (bacterial DNA repair), Assay Code: REWT, Evaluation Type: Evaluation A (Pre-1980)) was “no conclusion”.
c1ccc2c(C3CO3)c3ccccc3cc2c1 (stereo unspecified) was tested, and the mutagenic call (Species/Cell Type: Salmonella typhimurium (one or more of the five standard strains: TA98, TA100, TA1535, TA1537, and TA1538), Assay Type: Histidine reverse gene mutation, Ames assay, Assay Code: SAL+, Evaluation Type: Evaluation A (Pre-1980)) was “active; positive”.
For O=[N+]([O-])c1ccc(-c2nc(N(CCO)CCO)c3ccccc3n2)s1, the mutagenic call [9] was “no conclusion”.
O=NN(CCCl)C(=O)NCCCCCNC(=O)N(CCCl)N=O was tested, and the mutagenic call [5] was “active; positive” and the mutagenic call [8] was “active; positive”.
For O=S(=O)(O)NC1CCCCC1, the mutagenic call (Species/Cell Type: Drosophila melanogaster, Assay Type: Aneuploidy, sex chromosome gain, chromosome aberrations, Assay Code: DAG-F, Evaluation Type: Evaluation A (Pre-1980)) was “inactive; negative”, the mutagenic call (Species/Cell Type: Drosophila melanogaster, Assay Type: Aneuploidy, whole sex chromosome loss, chromosome aberrations, Assay Code: DAC-F, Evaluation Type: Evaluation A (Pre-1980)) was “inactive; negative” and the mutagenic call (Species/Cell Type: Drosophila melanogaster, Assay Type: Sex-linked recessive lethal gene mutation, Assay Code: SRLT, Evaluation Type: Evaluation A (Pre-1980)) was “no conclusion”. The mutagenic call (Species/Cell Type: Mammalian germ cells, Sex: Male, Assay Type: Chromosome aberrations in vivo, Assay Code: CY9T, Evaluation Type: Evaluation A (Pre-1980)) was “no conclusion”, the mutagenic call (Species/Cell Type: Mammalian polychromatic erythrocytes, Assay Type: Micronucleus test, chromosome aberrations, Assay Code: MNTT, Evaluation Type: Evaluation A (Pre-1980)) was “no conclusion” and the mutagenic call (Species/Cell Type: Mouse, Sex: Male, Assay Type: Sperm morphology, Assay Code: SPI-, Evaluation Type: Evaluation A (Pre-1980)) was “inactive; negative”. The mutagenic call (Species/Cell Type: Nonhuman bone marrow, Assay Type: Chromosome aberrations, in vivo, Assay Code: CY#T, Evaluation Type: Evaluation A (Pre-1980)) was “no conclusion”, the mutagenic call (Species/Cell Type: Rodents, Sex: Female, Assay Type: Dominant lethal test, Assay Code: DLTF-, Evaluation Type: Evaluation A (Pre-1980)) was “inactive; negative” and the mutagenic call (Species/Cell Type: Rodents, Sex: Male, Assay Type: Dominant lethal test, Assay Code: DLT-, Evaluation Type: Evaluation A (Pre-1980)) was “inactive; negative”. The mutagenic call (Species/Cell Type: Salmonella typhimurium, Serratia marcesens, Assay Type: Forward and reverse gene mutation, host-mediated assay, Assay Code: HM2-, Evaluation Type: Evaluation A (Pre-1980)) was “inactive; negative”.
CCCCCc1cc(O)c2c(c1)OC(C)(C)[C@@H]1CCC(CO)=C[C@@H]21 was tested, and the mutagenic call [1] was “inactive; negative”.
For O=S(=O)(O)CCS, the mutagenic call (Species/Cell Type: Human lymphocytes, Assay Type: Sister-chromatid exchange (SCE) in vitro, Assay Code: SCLT, Evaluation Type: Evaluation B (Post-1980)) was “no conclusion” and the mutagenic call (Species/Cell Type: Human, Assay Type: Sister-chromatid exchange (SCE) in vitro, Assay Code: SC1T, Evaluation Type: Evaluation B (Post-1980)) was “no conclusion”.
For O.O.O.[Co], the mutagenic call (Species/Cell Type: Bacillus subtilis (H17 vs M45), Assay Type: Rec-assay, spot test, DNA effects (bacterial DNA repair), Assay Code: REW+, Evaluation Type: Evaluation A (Pre-1980)) was “active; positive”.
In the case of CC(=O)c1cc(O)c(C(C)C)c2cc(C)c(-c3c(C)cc4c(C(C)C)c(O)c(O)c(C=O)c4c3O)c(O)c12, the mutagenic call [7] is reported as “no conclusion” and the mutagenic call (Species/Cell Type: Nonhuman, Assay Type: Sister-chromatid exchange (SCE) in vivo, Assay Code: SC3+D, Dose Response: With dose response, Evaluation Type: Evaluation B (Post-1980)) is reported as “active; positive”.
C=C(C)CC(C)(C)C was tested, and the mutagenic call [9] was “no conclusion”.
In the case of O=C(O)C1=NN(c2ccc(S(=O)(=O)O)cc2)C(=O)C1N=Nc1ccc(S(=O)(=O)O)cc1 (stereo unspecified), the mutagenic call (Species/Cell Type: Bacillus subtilis (H17 vs M45T), Assay Type: Rec-assay, spot test, DNA effects (bacterial DNA repair), Assay Code: REXT, Evaluation Type: Evaluation A (Pre-1980)) is reported as “no conclusion”, the mutagenic call (Species/Cell Type: Fischer rat embryo (RLV/1706) cells, Assay Type: Cell transformation, viral enhanced, Assay Code: CTR-, Evaluation Type: Evaluation A (Pre-1980)) is reported as “inactive; negative” and the mutagenic call [7] is reported as “no conclusion”. The mutagenic call (Species/Cell Type: Saccharomyces cerevisiae, Assay Type: Mitotic recombination or gene conversion, Assay Code: YEC-, Evaluation Type: Evaluation A (Pre-1980)) was “inactive; negative” and the mutagenic call [4] was “inactive; negative”.
[O]=[Zr] was tested, and the mutagenic call (Species/Cell Type: Nonhuman, Assay Type: Sister-chromatid exchange (SCE) in vitro, Assay Code: SC2-, Evaluation Type: Evaluation B (Post-1980)) was “inactive; negative”.
For Oc1cc2cc3c(ccc4ccccc43)cc2c2ccccc12, the mutagenic call (Species/Cell Type: Chinese hamster lung (V79) cells, Assay Type: Forward gene mutation at the HPRT or ouabain locus, Assay Code: V79+, Evaluation Type: Evaluation A (Pre-1980)) was “active; positive”, the mutagenic call (Species/Cell Type: Mouse prostate cells, Assay Type: Cell transformation, Assay Code: CTM-, Evaluation Type: Evaluation A (Pre-1980)) was “inactive; negative” and the mutagenic call (Species/Cell Type: Syrian hamster embryo (SHE) cells, Assay Type: Cell transformation, clonal assay, Assay Code: CTCT, Evaluation Type: Evaluation A (Pre-1980)) was “no conclusion”.
